The subject of one data set is HEK293. Nature of the data set: (§1) Cytotoxicity against HEK293 cells assessed as inhibition of cell proliferation at 100 uM relative to control. In kind it is cell-based. The note with it: human, hek293, 100 µM.
Data set [1] concerns Plasmodium falciparum. Nature of the data set: Antiplasmodial activity against synchronized ring stage of chloroquine-sensitive Plasmodium falciparum 3D7 infected in human erythrocytes assessed as inhibition of parasite replication at higher concentration after 72 hrs by DAPI staining based fluorescence imaging analysis relative to control. It is filed as functional.
The subject of data set [2] is Plasmodium falciparum. Nature of the data set: Antiplasmodial activity against synchronized ring stage of chloroquine-sensitive Plasmodium falciparum 3D7 infected in human erythrocytes assessed as inhibition of parasite replication after 72 hrs by DAPI staining based fluorescence imaging analysis. It is filed as functional, organism-based. The settings on record: 3D7, 72 h.

The nature of data set [3]: as §1. It is filed as cell-based. The settings on record: human, HEK293 cells.

On to `CC1(C)C(=O)C2=C(O[C@@]3(C)[C@H](C[C@@H]4C[C@H]3C4(C)C)[C@H]2c2ccccc2)C(C)(C)C1=O`, for which, in the data set with HEK293, the Activity entry is given as “Non-Toxic”. Also, in the data set with Plasmodium falciparum [1], the “inhibition (INH)” value was 100%. Besides, in the data set on Plasmodium falciparum [2], the IC50 turned out to be 20.8 µM.
With `CC1(C)C(=O)C2=C(O[C@]3(CC[C@H]4C[C@@H]3C4(C)C)C[C@@H]2c2ccccc2)C(C)(C)C1=O`, the inhibition at 100 µM in data set [3] was determined as 64%. Moreover, the concentration for half-maximal inhibition (IC50) in the data set with Plasmodium falciparum [2] was determined as 12.5 µM.
For the molecule `CC1(C)C(=O)C2=C(O[C@]3(CC[C@H]4C[C@@H]3C4(C)C)C[C@H]2c2ccccc2)C(C)(C)C1=O`, the “inhibition (INH)” value with Plasmodium falciparum [1] was determined as 100%. In addition, the IC50 with Plasmodium falciparum [2] stood at 9.9 µM.

Usually IC50 stands for the concentration that gives 50% inhibition. What is called inhibition is the change of the read-out against control, counted positive when it falls.

The values above are taken from ChEMBL document CHEMBL4266046, “β-Triketone-Monoterpene Hybrids from the Flowers of the Australian Tree Corymbia intermedia” (J Nat Prod, 2018).
